# Measured values as given in patent US8268840B2, “Pyrimidinyl pyridone inhibitors of kinases” (Roche Palo Alto LLC, priority 2008, dated 2012).
row,melting point,Compound
1,264.4 to 266.8 °C,"Nc1cc(=O)n(C2CC2)c2nc(NC3CCOCC3)ncc12 [Compound I-54, 5-Amino-8-cyclopropyl-2-(tetrahydro-pyran-4-ylamino)-8H-pyrido[2,3-d]pyrimidin-7-one]"
2,209 to 210 °C,"Cc1c(N)c2cnc(N[C@H]3CCCC[C@@H]3C)nc2n(C2CCC2)c1=O (racemic) [Compound I-60, 5-Amino-8-cyclobutyl-6-methyl-2-((1S,2S)-2-methyl-cyclohexylamino)-8H-pyrido[2,3-d]pyrimidin-7-one]"
3,229.8 to 230.5 °C,"CCc1c(N)c2cnc(NC3CCCCC3)nc2n(C2CCCC2)c1=O [Compound I-36, 5-Amino-2-cyclohexylamino-8-cyclopentyl-6-ethyl-8H-pyrido[2,3-d]pyrimidin-7-one]"
4,209 to 210 °C,"Cc1c(N)c2cnc(N[C@@H]3CCCC[C@H]3C)nc2n(C2CCC2)c1=O [Compound I-34, 5-Amino-8-cyclobutyl-6-methyl-2-((1R,2R)-2-methyl-cyclohexylamino)-8H-pyrido[2,3-d]pyrimidin-7-one]"
5,> 300 °C,"N#Cc1c(N)c2cnc(N[C@H]3CC[C@H](C(=O)N4CCC(O)CC4)CC3)nc2n(C2CCC2)c1=O [Compound I-38, 5-Amino-8-cyclobutyl-2-[4-(4-hydroxy-piperidine-1-carbonyl)-cyclohexylamino]-7-oxo-7,8-dihydro-pyrido[2,3-d]pyrimidine-6-carbonitrile]"
6,245.6 to 246.8 °C,"Nc1cc(=O)n(Cc2ccccc2)c2nc(NC3CCOCC3)ncc12 [Compound I-69, 5-Amino-8-benzyl-2-(tetrahydro-pyran-4-ylamino)-8H-pyrido[2,3-d]pyrimidin-7-one]"

# Further lines, the molecule ahead of its results:
row,Compound,melting point
1,"Cc1c(N)c2cnc(N[C@H]3CC[C@H](C(C)(C)O)CC3)nc2n(C2CCC2)c1=O [Compound I-20, 5-Amino-8-cyclobutyl-2-[4-(1-hydroxy-1-methyl-ethyl)-cyclohexylamino]-6-methyl-8H-pyrido[2,3-d]pyrimidin-7-one]",223 to 224.8 °C
2,"CS(=O)(=O)N1CCC(Nc2ncc3c(N)cc(=O)n(C4CCCCC4)c3n2)CC1 [Compound I-29, 5-Amino-8-cyclohexyl-2-(1-methanesulfonyl-piperidin-4-ylamino)-8H-pyrido[2,3-d]pyrimidin-7-one]",250 to 254 °C
3,"CCn1c(=O)cc(N)c2cnc(NC3CCCCC3)nc21 [Compound I-21, 5-Amino-2-cyclohexylamino-8-ethyl-8H-pyrido[2,3-d]pyrimidin-7-one]",147.7 to 150.1 °C
4,"Cc1c(N)c2cnc(N[C@H]3CC[C@H](N(C)S(C)(=O)=O)CC3)nc2n(C2CCC2)c1=O [Compound I-24, N-[4-(5-Amino-8-cyclobutyl-6-methyl-7-oxo-7,8-dihydro-pyrido[2,3-d]pyrimidin-2-ylamino)-cyclohexyl]-N-methyl-methanesulfonamide]",260 to 261 °C
5,"Cc1c(N)c2cnc(N[C@H]3CC[C@H](C(=O)N4CCOCC4)CC3)nc2n(C2CCCC2)c1=O [Compound I-10, 5-Amino-8-cyclopentyl-6-methyl-2-[4-(morpholine-4-carbonyl)-cyclohexylamino]-8H-pyrido[2,3-d]pyrimidin-7-one]",186.8 to 188 °C
6,"Nc1cc(=O)n(C2CCCC2)c2nc(N[C@H]3CC[C@H](C(=O)N4CCOCC4)CC3)ncc12 [Compound I-13, 5-Amino-8-cyclopentyl-2-[4-(morpholine-4-carbonyl)-cyclohexylamino]-8H-pyrido[2,3-d]pyrimidin-7-one]",292.5 to 295.3 °C
7,"COC(=O)N[C@H]1CC[C@H](Nc2ncc3c(N)cc(=O)n(C4CCCCC4)c3n2)CC1 [Compound I-19, [4-(5-Amino-8-cyclohexyl-7-oxo-7,8-dihydro-pyrido[2,3-d]pyrimidin-2-ylamino)-cyclohexyl]-carbamic acid methyl ester]",193.9 to 198 °C
